According to patent publication US20110098296A1, “Thiazole And Oxazole Kinase Inhibitors” (priority 2007, published 2011):
pIC50: −log10 of the molar value. Where a name gives a salt, the structure may show the parent alone.

How the values were obtained:
EGFR = molecular target: T1, EGFR (Homo sapiens, UniProt P00533); test: EGFR substrate phosphorylation assay (HTRF); assay type: biochemical
T1 construct: made in house; host or cells: baculovirus expression system
Description: (§1) Compounds of the present invention were tested for EGFR and ErbB-2 protein tyrosine kinase inhibitory activity in substrate phosphorylation assays using enzymes purified from a baculovirus expression system. Reagent production was conducted essentially as described in Brignola, P. S., et al., (2002) J. Biol. Chem. 277(2):1576-1585.
(§2) The method measures the ability of the isolated enzyme to catalyse the transfer of the gamma-phosphate from ATP onto the tyrosine residue of a biotinylated synthetic peptide referenced “Peptide C” in Brignola, P. S., et al., (2002) J. Biol. Chem. 277(2):1576-1585. The extent of tyrosine phosphorylation was measured using an anti-phosphotyrosine antibody, and quantified by homogenous time-resolved fluorescence (HTRF).
(§3) Reactions were performed in black 384-well polystyrene flat-bottom plates in a final volume of 20 μl. Assays were performed by adding 10 μl of each of the following solutions, Substrate Mix and Enzyme Mix: The Substrate Mix contained 100 mM 3-[N-morpholino]propanesulfonic acid (MOPS) (pH 7.5), 2 mM MnCl2, 20 μM ATP, 0.01% Tween-20, 0.1 mg/mL (BSA), 0.8 uM peptide substrate, and 1 mM dithiothreitol. The Enzyme Mix contained 100 mM MOPS (pH 7.5); 0.01% Tween-20; 0.1 mg/mL BSA, and either 0.8 nM EGFR, 10 nM ErbB2, or 1 nM ErbB4
(§4) During the course of these studies, two separate methods have been used to measure the potency of compounds. In Method A (indicated as “(A)” in the tables below), the Enzyme Mix was added to the compound plates and the plates were incubated at 20° C. for 1 hr. The reactions were then started by adding the Substrate Mix. In Method B (indicated as “(B)” in the tables below), the Substrate Mix was added to the compound plates first, then the reaction was started by adding the Enzyme Mix.
(§5) After initiating the reaction with either method describe above, the reactions were allowed to proceed for 90 minutes at 20° C. The reactions were then terminated by the addition of 20 μL 100 mM EDTA to each well. 40 μL/well of HTRF detection mix were added to the assay plates. The final concentrations of the detection reagents were: 100 mM HEPES (pH7.5), 0.1 mg/mL BSA, 15 nM streptavidin-labeled allophycocyanin (PerkinElmer), and 1 nM europium-labeled anti-phosphotyrosine antibody (PerkinElmer). Assay plates were left unsealed and were counted in a Wallac Multilabel Counter 1420 (PerkinElmer).
(§6) Compounds under analysis were dissolved in dimethylsulfoxide (DMSO) to 1.0 mM and serially diluted 1 to 3 with DMSO through twelve dilutions. 1 μL of each concentration was transferred to the corresponding well of an assay plate. This creates a final compound concentration range from 0.00027 to 47.6 μM.
(§7) The data for dose responses were plotted as % Inhibition calculated with the data reduction formula 100*(1−(U1−C2)/(C1−C2)) versus concentration of compound where U1 is the unknown value, C1 is the average control value obtained for 4.76% DMSO, and C2 is the average control value obtained for 0.035 M EDTA. Data were fitted with a curve described by:
(§8) where Vmax is the upper asymptote, Y2 is the Y intercept, and K is the IC50. The results for each compound were recorded as pIC50s, calculated as follows: […]

ErbB2 = molecular target: T2, ErbB2 (Homo sapiens, UniProt P04626); test: ErbB-2 substrate phosphorylation assay (HTRF); assay type: biochemical
T2 construct: made in house; host or cells: baculovirus expression system
Description: as §1, §2, §3, §4, §5, §6, §7, §8

BT474 tumor cells = test: Method C: Cell Growth Inhibition Assay (CellTiter-Glo), BT474; assay type: cell-based; details: Homo sapiens, BT-474, 72 h, 3 days, 4-parameter fit
Description: (§9) Human breast tumor cells (BT474) were cultured in RPMI (Mediatech 50-011-PB), containing 10% FBS (JRH Biosciences 12176) and 1% penicillin-streptomycin (Invitrogen 15140). Human head and neck tumor cells (HN5) were cultured in high glucose DMEM (Mediatech 50-013-PB) containing 10% FBS and 1% penicillin-streptomycin. Human colon tumor cells (Colo205) were cultured in RPMI (Mediatech 50-020-PB) containing 10% FBS and 1% penicillin-streptomycin. Human melanoma cancer cells (SK-MEL-28) were cultured in EMEM with nonessential amino acids (Mediatech 50-011-PB) containing 10% FBS, 1% sodium pyruvate (JT Baker 3354-04), and 1% penicillin-streptomycin. Human melanoma cancer cells (A375P F11s) were cultured in RPMI (Mediatech 50-020-PB) containing 10% FBS, 1% sodium pyruvate, and 1% penicillin-streptomycin. Human colon cancer cells (HT-29) were cultured in high glucose DMEM (Mediatech 50-013-PB) containing 10% FBS and 1% penicillin-streptomycin. Human melanoma cancer cells (SK-MEL-3) were cultured in McCoy's 5A (50-025-PB) containing 15% FBS, and 1% penicillin-streptomycin. All cell lines were maintained at 37° C. in a humidified 5% CO2, 95% air incubator. Cells were harvested using trypsin/EDTA (Invitrogen 25200), counted using an haemocytometer, and plated. For 96-well assays (using white full-area NUNC plates cat. #136102), cells were plated in 105 μL at the following densities (cells/well): HN5, 500; Colo205, 500; SK-MEL-28, 500; A375P-F11s, 500; HT-29, 500; SK-MEL-3, 500; and BT474, 3000. For 384-well assays (white full-area NUNC plates, cat. #781080), cells were plated in 48 μL at the following densities (cells/well): HN5, 500; Colo205, 500; SK-MEL-28, 500; A375P-F11s, 500; HT29, 500; SK-MEL-3, 500; and BT474, 2000.
(§10) The next day, compounds were diluted as follow: For 96-well assays, 13.5 μL of compound in DMSO were diluted using nine (9) serial 1:3 dilutions of 4.5 μL in 9 μL of DMSO. Medium (270 μl/well of RPMI with 10% FBS and 1% penicillin-streptomycin) was added to the plates. Aliquots (7 μl) were added to cells in the final assay giving a final DMSO concentration of 0.2%. For 384-well assays, 15 μL of compound in DMSO were diluted using nine (9) serial 1:3 dilutions of 5 μL in 10 μL of DMSO, followed by a further dilution of 5 μL of compound with 95 μL of medium, of which 2 μL were added to cells in the final assay giving a final DMSO concentration of 0.2%. Cells were incubated at 37° C., 5% CO2 for 3 days.
(§11) Total ATP was measured (as a surrogate estimate of cell number) using CellTiter-Glo® reagent (Promega G7571). Briefly, plates were removed from the incubator and allowed to equilibrate to room temperature for 30 minutes. CellTiter-Glo® (25 μL or 55 μL for 384-well or 96-well assays, respectively) reagent was added to each well and plates were shaken on an orbital plate shaker for 2 mins. Plates were incubated without shaking for a further 30 mins and read on an LJL Analyst GT reader in luminometer mode with an integration time of 0.5 seconds per well. Percent inhibition of cell growth was calculated relative to DMSO vehicle-treated control wells. Concentration of compound required to give 50% inhibition of vehicle-treated control cell growth (IC50) was interpolated using a 4-parameter fit for determining IC50 using the following equation: Y=A+((B−A)/(1+((C/X)̂D))) where X=IC50.

Colo205 tumor cells = test: Method C: Cell Growth Inhibition Assay (CellTiter-Glo), Colo205; assay type: cell-based; details: Homo sapiens, COLO 205, 72 h, 3 days, 4-parameter fit
Description: as §9, §10, §11

SK-MEL-28 tumor cells = test: Method C: Cell Growth Inhibition Assay (CellTiter-Glo), SK-MEL-28; assay type: cell-based; details: Homo sapiens, SK-MEL-28, 72 h, 3 days, 4-parameter fit
Description: as §9, §10, §11

[1] = Method (A): Enzyme Mix incubated with compound at 20° C. for 1 hr, reaction started by adding Substrate Mix
[2] = Method (B): Substrate Mix added to compound first, reaction started by adding Enzyme Mix

T1 sequence (P00533 25-1210): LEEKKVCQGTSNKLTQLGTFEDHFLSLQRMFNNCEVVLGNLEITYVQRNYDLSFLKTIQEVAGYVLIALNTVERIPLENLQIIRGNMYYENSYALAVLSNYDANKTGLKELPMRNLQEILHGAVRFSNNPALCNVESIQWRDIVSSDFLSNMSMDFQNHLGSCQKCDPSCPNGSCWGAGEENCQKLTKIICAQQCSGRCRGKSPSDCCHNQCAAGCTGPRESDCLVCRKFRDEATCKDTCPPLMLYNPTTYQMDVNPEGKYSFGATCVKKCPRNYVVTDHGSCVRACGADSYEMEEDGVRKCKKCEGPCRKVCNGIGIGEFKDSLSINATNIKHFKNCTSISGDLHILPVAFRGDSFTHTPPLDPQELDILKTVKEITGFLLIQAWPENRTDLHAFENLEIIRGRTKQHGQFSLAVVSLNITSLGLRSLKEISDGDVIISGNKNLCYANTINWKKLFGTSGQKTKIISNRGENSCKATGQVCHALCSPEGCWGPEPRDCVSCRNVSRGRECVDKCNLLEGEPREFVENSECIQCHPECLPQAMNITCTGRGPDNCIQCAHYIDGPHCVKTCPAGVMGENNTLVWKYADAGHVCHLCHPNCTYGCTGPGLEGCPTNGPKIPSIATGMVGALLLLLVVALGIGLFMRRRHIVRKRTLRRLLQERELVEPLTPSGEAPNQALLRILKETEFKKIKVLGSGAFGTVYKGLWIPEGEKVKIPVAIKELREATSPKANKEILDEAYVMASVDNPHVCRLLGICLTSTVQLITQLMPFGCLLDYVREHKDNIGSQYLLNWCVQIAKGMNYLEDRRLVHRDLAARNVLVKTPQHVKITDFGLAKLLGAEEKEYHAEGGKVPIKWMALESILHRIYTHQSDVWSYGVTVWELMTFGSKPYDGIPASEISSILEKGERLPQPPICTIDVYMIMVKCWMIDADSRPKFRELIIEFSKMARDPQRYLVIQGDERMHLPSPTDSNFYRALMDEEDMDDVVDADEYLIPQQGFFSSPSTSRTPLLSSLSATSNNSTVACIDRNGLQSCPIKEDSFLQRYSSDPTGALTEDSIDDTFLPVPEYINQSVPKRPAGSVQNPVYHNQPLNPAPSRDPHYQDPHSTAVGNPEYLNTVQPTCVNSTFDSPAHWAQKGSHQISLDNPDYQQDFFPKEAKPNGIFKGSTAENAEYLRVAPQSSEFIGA
T2 sequence (P04626 23-1255): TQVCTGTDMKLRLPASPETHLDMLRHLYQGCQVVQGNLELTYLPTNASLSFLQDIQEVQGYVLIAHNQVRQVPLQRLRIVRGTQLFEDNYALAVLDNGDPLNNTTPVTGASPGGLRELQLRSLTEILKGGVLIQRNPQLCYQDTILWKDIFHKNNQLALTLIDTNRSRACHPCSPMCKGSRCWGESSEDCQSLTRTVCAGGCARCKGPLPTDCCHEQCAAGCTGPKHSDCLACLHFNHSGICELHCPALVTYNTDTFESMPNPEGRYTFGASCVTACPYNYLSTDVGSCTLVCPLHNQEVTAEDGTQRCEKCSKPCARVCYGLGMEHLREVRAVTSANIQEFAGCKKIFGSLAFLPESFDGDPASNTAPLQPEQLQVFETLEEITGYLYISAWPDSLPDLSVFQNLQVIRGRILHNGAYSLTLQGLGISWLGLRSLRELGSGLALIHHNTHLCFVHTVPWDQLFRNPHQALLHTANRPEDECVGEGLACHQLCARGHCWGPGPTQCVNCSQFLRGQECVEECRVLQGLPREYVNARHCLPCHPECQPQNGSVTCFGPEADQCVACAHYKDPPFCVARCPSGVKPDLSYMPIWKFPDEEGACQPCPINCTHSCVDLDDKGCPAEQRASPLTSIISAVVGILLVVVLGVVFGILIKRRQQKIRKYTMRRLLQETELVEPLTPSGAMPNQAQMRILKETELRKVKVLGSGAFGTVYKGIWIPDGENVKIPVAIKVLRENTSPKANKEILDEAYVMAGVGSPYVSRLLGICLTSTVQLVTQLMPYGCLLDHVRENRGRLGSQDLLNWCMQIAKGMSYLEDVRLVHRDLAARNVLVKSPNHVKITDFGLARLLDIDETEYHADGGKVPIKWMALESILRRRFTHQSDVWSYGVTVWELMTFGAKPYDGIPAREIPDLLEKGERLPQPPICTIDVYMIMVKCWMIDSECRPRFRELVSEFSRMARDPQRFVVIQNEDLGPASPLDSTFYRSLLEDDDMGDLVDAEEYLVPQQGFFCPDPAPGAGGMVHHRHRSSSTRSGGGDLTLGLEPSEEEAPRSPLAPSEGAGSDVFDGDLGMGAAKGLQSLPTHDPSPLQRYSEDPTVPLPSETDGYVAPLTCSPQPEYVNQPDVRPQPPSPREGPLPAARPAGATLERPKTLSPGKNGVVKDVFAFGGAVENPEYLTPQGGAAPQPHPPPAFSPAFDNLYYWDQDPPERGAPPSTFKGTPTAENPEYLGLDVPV

Row | pIC50 (EGFR; [1]) | pIC50 (ErbB2; [1]) | pIC50 (BT474 tumor cells) | pIC50 (Colo205 tumor cells) | pIC50 (SK-MEL-28 tumor cells) | pIC50 (EGFR; [2]) | pIC50 (ErbB2; [2]) | Structure (SMILES)
1 | > 7.00 | > 7.00 | < 6.00 | < 6.00 | < 6.00 | – | – | CN(C)CCOc1ccc(Nc2nccc(-c3sc(NS(=O)(=O)CC(F)(F)F)nc3-c3cccc(NC(=O)c4c(F)cccc4F)c3)n2)cc1 [Example 35, N-[3-(5-{2-[(4-{[2-(Dimethylamino)ethyl]oxy}phenyl)amino]-4-pyrimidinyl}-2-{[(2,2,2-trifluoroethyl)sulfonyl]amino}-1,3-thiazol-4-yl)phenyl]-2,6-difluorobenzamide]
2 | > 7.00 | > 7.00 | – | < 6.00 | < 6.00 | – | – | CN(C)c1nc(-c2cccc(NC(=O)c3c(F)cccc3F)c2)c(-c2ccnc(Nc3ccc(N4CCOCC4)c(Cl)c3)n2)s1 [Example 41, N-{3-[5-(2-{[3-Chloro-4-(4-morpholinyl)phenyl]amino}-4-pyrimidinyl)-2-(dimethylamino)-1,3-thiazol-4-yl]phenyl}-2,6-difluorobenzamide trifluoroacetate]
3 | > 7.00 | > 7.00 | – | 6.00 to 7.00 | < 6.00 | – | – | CN(C)c1nc(-c2cccc(NC(=O)c3c(F)cccc3F)c2)c(-c2ccnc(Nc3ccc(OCCN4CCCC4)nc3)n2)s1 [Example 43, N-[3-(2-(Dimethylamino)-5-{2-[(6-{[2-(1-pyrrolidinyl)ethyl]oxy}-3-pyridinyl)amino]-4-pyrimidinyl}-1,3-thiazol-4-yl)phenyl]-2,6-difluorobenzamide]
4 | > 7.00 | > 7.00 | 6.00 to 7.00 | 6.00 to 7.00 | < 6.00 | – | – | CN1CCN(c2nc(-c3cccc(NC(=O)c4c(F)cccc4F)c3)c(-c3ccnc(Nc4cccc(CN5CCCC5)c4)n3)s2)CC1 [Example 46, 2,6-Difluoro-N-{3-[2-(4-methyl-1-piperazinyl)-5-(2-{[3-(1-pyrrolidinylmethyl)phenyl]amino}-4-pyrimidinyl)-1,3-thiazol-4-yl]phenyl}benzamide]
5 | > 7.00 | > 7.00 | < 6.00 | < 6.00 | < 6.00 | – | – | O=C(Nc1cccc(-c2nc(N3CCC3)sc2-c2ccnc(Nc3ccc(OCCN4CCCC4)c(Cl)c3)n2)c1)c1c(F)cccc1F [Example 47, N-[3-(2-(1-Azetidinyl)-5-{2-[(3-chloro-4-{[2-(1-pyrrolidinyl)ethyl]oxy}phenyl)amino]-4-pyrimidinyl}-1,3-thiazol-4-yl)phenyl]-2,6-difluorobenzamide]
6 | > 7.00 | > 7.00 | 6.00 to 7.00 | 6.00 to 7.00 | < 6.00 | – | – | O=C(Nc1cccc(-c2nc(N3CCCCC3)sc2-c2ccnc(Nc3cccc(CN4CCCC4)c3)n2)c1)c1c(F)cccc1F [Example 73, 2,6-Difluoro-N-{3-[2-(1-piperidinyl)-5-(2-{[3-(1-pyrrolidinylmethyl)phenyl]amino}-4-pyrimidinyl)-1,3-thiazol-4-yl]phenyl}benzamide]
7 | > 7.00 | > 7.00 | 6.00 to 7.00 | < 6.00 | < 6.00 | – | – | Cc1nc(-c2cccc(NC(=O)c3c(F)cccc3F)c2)c(-c2ccnc(Nc3ccc(OCCN4CCCC4)c(Cl)c3)n2)s1 [Example 110, N-[3-(5-{2-[(3-Chloro-4-{[2-(1-pyrrolidinyl)ethyl]oxy}phenyl)amino]-4-pyrimidinyl}-2-methyl-1,3-thiazol-4-yl)phenyl]-2,6-difluorobenzamide]
8 | > 7.00 | > 7.00 | – | 6.00 to 7.00 | < 6.00 | – | – | CCc1nc(-c2cccc(NC(=O)c3c(F)cccc3F)c2)c(-c2ccnc(Nc3ccc(N4CCC(N5CCCCC5)CC4)c(F)c3)n2)s1 [Example 116, N-{3-[5-(2-{[4-(1,4′-Bipiperidin-1′-yl)-3-fluorophenyl]amino}-4-pyrimidinyl)-2-ethyl-1,3-thiazol-4-yl]phenyl}-2,6-difluorobenzamide]
9 | > 7.00 | > 7.00 | 6.00 to 7.00 | < 6.00 | < 6.00 | – | – | CCc1nc(-c2cccc(NC(=O)c3c(F)cccc3F)c2)c(-c2ccnc(Nc3ccc(OCCN4CCCC4)c(F)c3)n2)s1 [Example 117, N-[3-(2-Ethyl-5-{2-[(3-fluoro-4-{[2-(1-pyrrolidinyl)ethyl]oxy}phenyl)amino]-4-pyrimidinyl}-1,3-thiazol-4-yl)phenyl]-2,6-difluorobenzamide]
10 | > 7.00 | > 7.00 | – | < 6.00 | < 6.00 | – | – | O=C(Nc1cccc(-c2nc(CF)sc2-c2ccnc(Nc3ccc(OCCN4CCCC4)c(F)c3)n2)c1)c1c(F)cccc1F [Example 127]
11 | – | – | – | – | – | < 6.00 | < 6.00 | O=C(Nc1cccc(-c2ncoc2-c2ccnc(Nc3cccc(F)c3)n2)c1)c1c(F)cccc1F [Example 141, 2,6-Difluoro-N-[3-(5-{2-[(3-fluorophenyl)amino]-4-pyrimidinyl}-1,3-oxazol-4-yl)phenyl]benzamide]
